Bounds are passed on as bounds.

Sequence of CYP46A1 (Q9Y6A2 whole entry): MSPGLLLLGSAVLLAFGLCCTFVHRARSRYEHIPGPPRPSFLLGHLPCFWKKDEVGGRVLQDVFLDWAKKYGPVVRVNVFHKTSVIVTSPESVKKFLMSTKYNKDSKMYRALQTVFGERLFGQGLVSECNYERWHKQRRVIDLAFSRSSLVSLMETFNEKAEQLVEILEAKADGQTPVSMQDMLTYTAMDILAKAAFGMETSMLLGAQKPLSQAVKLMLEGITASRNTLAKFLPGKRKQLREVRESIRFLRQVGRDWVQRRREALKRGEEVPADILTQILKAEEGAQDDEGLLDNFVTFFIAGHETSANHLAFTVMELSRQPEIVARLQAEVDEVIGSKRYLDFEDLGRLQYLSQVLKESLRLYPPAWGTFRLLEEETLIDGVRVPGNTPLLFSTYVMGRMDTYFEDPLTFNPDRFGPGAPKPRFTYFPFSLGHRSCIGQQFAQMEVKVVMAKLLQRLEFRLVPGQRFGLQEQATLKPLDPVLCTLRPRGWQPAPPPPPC

The target of the assay is CYP46A1 (Homo sapiens, UniProt Q9Y6A2). The experiment in a line: CYP46A1 Enzyme Assay 2 (testosterone substrate, HPLC-MS). The class given is biochemical. Conditions: read-out: IC50 (CYP46A1 inhibitory activity). How it is done:
Briefly, in a 384-well plate format, 10 μL per well of an enzyme-substrate mixture of CYP46A1 (5 μM final concentration) and Testosterone ([…] final concentration) were dispensed to wells containing test compound. For CYP46A1 titration, 5 μL per well of serially diluted CYP46A1 (concentrations including 10 μM, 5 μM, and 2.5 μM) and Testosterone (concentration of […]) were dispensed. For Testosterone titration, 5 μL per well of serially diluted Testosterone (concentrations including 10 μM, 5 μM, and 2.5 μM) and CYP46A1 (concentration of 5 μM) were dispensed. The plates were centrifuged at 1000 rpm for 30 seconds, and then sealed and incubated at 37° C. for 30 minutes. The plate was removed from the incubator, and then 10 μL per well of NADPH-generating system were dispensed to initiate the reaction. The plates were incubated at 37° C. for 15 minutes, added with 80 μL per well of 100% methanol consisting 1 ng/ml diclofenac as internal standard, and then transferred for HPLC-MS.
Consider `CC(c1cc(F)cc(F)c1)C1(C#N)CCN(C(=O)c2cccnc2-c2ccncn2)CC1` (stereo in doubt) [Compound A257, (S)-4-(1-(3,5-difluorophenyl)ethyl)-1-(2-(pyrimidin-4-yl)nicotinoyl)piperidine-4-carbonitrile], for which the IC50 (in general, the point on the concentration scale where inhibition reaches its midpoint) was less than 100 nM.

For the compound `CC(c1cc(F)cc(F)c1)C1(C#N)CCN(C(=O)c2cccnc2-c2ccncn2)CC1` (stereo in doubt) [Compound A258, (R)-4-(1-(3,5-difluorophenyl)ethyl)-1-(2-(pyrimidin-4-yl)nicotinoyl)piperidine-4-carbonitrile], the IC50 was less than 100 nM.

For the compound `CC(c1cc(F)cc(F)c1)C1(C#N)CCN(C(=O)c2cccnc2-c2ccncc2)CC1` (stereo in doubt) [Compound A259, (S)-1-([2,4′-bipyridine]-3-carbonyl)-4-(1-(3,5-difluorophenyl)ethyl)piperidine-4-carbonitrile], the IC50 is less than 100 nM.

For `CC(c1cc(F)cc(F)c1)C1(C#N)CCN(C(=O)c2cccnc2-c2ccncc2)CC1` (stereo in doubt) [Compound A260, (R)-1-([2,4′-bipyridine]-3-carbonyl)-4-(1-(3,5-difluorophenyl)ethyl)piperidine-4-carbonitrile], the IC50 is less than 100 nM.

Take `CC(c1ccc(C(F)(F)F)cc1)C1(C#N)CCN(C(=O)c2cccnc2-c2ccncc2)CC1` (stereo in doubt) [Compound A268, (R)-1-([2,4′-bipyridine]-3-carbonyl)-4-(1-(4-(trifluoromethyl)phenyl)ethyl)piperidine-4-carbonitrile]: the half-inhibitory concentration (IC50) was less than 100 nM.

On to `CC(c1ccc(C(F)(F)F)cc1)C1(C#N)CCN(C(=O)c2cccnc2-c2ccncc2)CC1` (stereo in doubt) [Compound A269, (S)-1-([2,4′-bipyridine]-3-carbonyl)-4-(1-(4-(trifluoromethyl)phenyl)ethyl)piperidine-4-carbonitrile], for which the IC50 is less than 100 nM.

Consider `CC(c1c(F)cc(F)cc1F)C1(C#N)CCN(C(=O)c2cccnc2-c2ccncn2)CC1` (stereo in doubt) [Compound A270, (S)-1-(2-(pyrimidin-4-yl)nicotinoyl)-4-(1-(2,4,6-trifluorophenyl)ethyl)piperidine-4-carbonitrile], for which the IC50 was less than 100 nM.

Take `CC(c1c(F)cc(F)cc1F)C1(C#N)CCN(C(=O)c2cccnc2-c2ccncn2)CC1` (stereo in doubt) [Compound A271, (R)-1-(2-(pyrimidin-4-yl)nicotinoyl)-4-(1-(2,4,6-trifluorophenyl)ethyl)piperidine-4-carbonitrile]: the IC50 was less than 100 nM.

Take `N#CC1(Cc2ccc(OC(F)(F)F)cc2)CCN(C(=O)c2cccnc2-c2ccncc2)CC1` [Compound A10, 1-([2,4′-bipyridine]-3-carbonyl)-4-(4-(trifluoromethoxy)benzyl)piperidine-4-carbonitrile]: the IC50 was less than 100 nM.

As for `N#CC1(Cc2ccc(Cl)cc2F)CCN(C(=O)c2cccnc2-c2ccncc2)CC1` [Compound A11, 1-{[2,4′-bipyridine]-3-carbonyl}-4-[(4-chloro-2-fluorophenyl)methyl]piperidine-4-carbonitrile], the IC50 was less than 100 nM.

As to `N#CC1(Cc2ccccc2F)CCN(C(=O)c2cccnc2-c2ccncc2)CC1` [Compound A12, 1-{[2,4′-bipyridine]-3-carbonyl}-4-[(2-fluorophenyl)methyl]piperidine-4-carbonitrile], the IC50 is less than 100 nM.

For the compound `N#CC1(Cc2cccc(F)c2)CCN(C(=O)c2cccnc2-c2ccncc2)CC1` [Compound A13, 1-{[2,4′-bipyridine]-3-carbonyl}-4-[(3-fluorophenyl)methyl]piperidine-4-carbonitrile], the IC50 was less than 100 nM.

On to `N#CC1(Cc2ccc(F)cc2)CCN(C(=O)c2cccnc2-n2ccnc2)CC1` [Compound A16, 1-(2-(1H-imidazol-1-yl)nicotinoyl)-4-(4-fluorobenzyl)piperidine-4-carbonitrile], for which the IC50 is greater than 1000 nM.

Consider `N#CC1(Cc2ccc(F)cc2)CCN(C(=O)c2cccnc2-c2cccnc2)CC1` [Compound A18, 1-([2,3′-bipyridine]-3-carbonyl)-4-(4-fluorobenzyl)piperidine-4-carbonitrile], for which the IC50 is greater than 1000 nM.

Consider `N#CC1(Cc2ccc(-c3ccccc3)cc2)CCN(C(=O)c2cccnc2-c2ccncc2)CC1` [Compound A19, 4-([1,1′-biphenyl]-4-ylmethyl)-1-([2,4′-bipyridine]-3-carbonyl)piperidine-4-carbonitrile], for which the IC50 is less than 100 nM.

As to `N#CC1(Cc2ccccc2Cl)CCN(C(=O)c2cccnc2-c2ccncc2)CC1` [Compound A21, 1-([2,4′-bipyridine]-3-carbonyl)-4-(2-chlorobenzyl)piperidine-4-carbonitrile], the IC50 is less than 100 nM.

`N#CC1(Cc2cccc(Cl)c2)CCN(C(=O)c2cccnc2-c2ccncc2)CC1` [Compound A22]: the concentration for half-maximal inhibition (IC50) is less than 100 nM.

As to `N#Cc1ccc(CC2(C#N)CCN(C(=O)c3cccnc3-c3ccncc3)CC2)cc1` [Compound A27, 1-([2,4′-bipyridine]-3-carbonyl)-4-(4-cyanobenzyl)piperidine-4-carbonitrile], the IC50 was less than 100 nM.

Take `N#CC1(Cc2ccccc2)CCN(C(=O)c2cccnc2-c2ccncn2)CC1` [Compound A31, 4-benzyl-1-(2-(pyrimidin-4-yl)nicotinoyl)piperidine-4-carbonitrile]: the IC50 is less than 100 nM.

With `Cc1ccc(CC2(C#N)CCN(C(=O)c3cccnc3-c3ccncn3)CC2)cc1` [Compound A35, 4-(4-methylbenzyl)-1-(2-(pyrimidin-4-yl)nicotinoyl)piperidine-4-carbonitrile], the concentration for half-maximal inhibition (IC50) is less than 100 nM.

For `N#CC1(Cc2ccc(Cl)cc2)CCN(C(=O)c2cccnc2-c2ccncn2)CC1` [Compound A37, 4-(4-chlorobenzyl)-1-(2-(pyrimidin-4-yl)nicotinoyl)piperidine-4-carbonitrile], the IC50 is less than 100 nM.

On to `N#CC1(Cc2ccc(C(F)(F)F)cc2)CCN(C(=O)c2cccnc2-c2ccncn2)CC1` [Compound A40, 1-(2-(pyrimidin-4-yl)nicotinoyl)-4-(4-(trifluoromethyl)benzyl)piperidine-4-carbonitrile], for which the IC50 was less than 100 nM.

In the case of `C[C@@H](c1ccc(F)cc1)C1(C#N)CCN(C(=O)c2cccnc2-c2ccncn2)CC1` [Compound A44, (S)-4-(1-(4-fluorophenyl)ethyl)-1-(2-(pyrimidin-4-yl)nicotinoyl)piperidine-4-carbonitrile], the IC50 was less than 100 nM.

For `C[C@H](c1ccc(F)cc1)C1(C#N)CCN(C(=O)c2cccnc2-c2ccncn2)CC1` [Compound A45, (R)-4-(1-(4-fluorophenyl)ethyl)-1-(2-(pyrimidin-4-yl)nicotinoyl)piperidine-4-carbonitrile], the IC50 was less than 100 nM.

Regarding `N#CC1(CC2CCOCC2)CCN(C(=O)c2cccnc2-c2ccncn2)CC1` [Compound A48, 1-(2-(pyrimidin-4-yl)nicotinoyl)-4-((tetrahydro-2H-pyran-4-yl)methyl)piperidine-4-carbonitrile], the IC50 lay in the range of 100 to 1000 nM.

As for `N#CC1(Cc2ccc(F)cc2F)CCN(C(=O)c2cccnc2-c2ccncn2)CC1` [Compound A51, 4-(2,4-difluorobenzyl)-1-(2-(pyrimidin-4-yl)nicotinoyl)piperidine-4-carbonitrile], the IC50 was less than 100 nM.

For `N#CC1(CC2CC(F)(F)C2)CCN(C(=O)c2cccnc2-c2ccncn2)CC1` [Compound A54, 4-((3,3-difluorocyclobutyl)methyl)-1-(2-(pyrimidin-4-yl)nicotinoyl)piperidine-4-carbonitrile], the concentration for half-maximal inhibition (IC50) was in the range of 100 to 1000 nM.

Consider `N#CC1(Cc2ccc(F)cc2)CCN(C(=O)c2cccnc2-c2cnco2)CC1` [Compound A56, 4-(4-fluorobenzyl)-1-(2-(oxazol-5-yl)nicotinoyl)piperidine-4-carbonitrile], for which the IC50 lay within 100 to 1000 nM.

`N#CC1(CC2CC2)CCN(C(=O)c2cccnc2-c2ccncn2)CC1` [Compound A58, 4-(cyclopropylmethyl)-1-(2-(pyrimidin-4-yl)nicotinoyl)piperidine-4-carbonitrile]: the concentration for half-maximal inhibition (IC50) lay within 100 to 1000 nM.

As to `COc1ccc(CC2(C#N)CCN(C(=O)c3cccnc3-c3ccncn3)CC2)cc1` [Compound A63, 4-(4-methoxybenzyl)-1-(2-(pyrimidin-4-yl)nicotinoyl)piperidine-4-carbonitrile], the IC50 is less than 100 nM.

`N#CC1(Cc2ccncc2)CCN(C(=O)c2cccnc2-c2ccncc2)CC1` [Compound A65, 1-([2,4′-Bipyridine]-3-carbonyl)-4-(pyridin-4-ylmethyl)piperidine-4-carbonitrile]: the IC50 fell in the range of 100 to 1000 nM.

As to `N#CC1(Cc2ccc(F)cc2)CCN(C(=O)c2cccnc2-c2cncnc2)CC1` [Compound A66, 4-(4-fluorobenzyl)-1-(2-(pyrimidin-5-yl)nicotinoyl)piperidine-4-carbonitrile], the IC50 lay within 100 to 1000 nM.

Regarding `N#CC1(CCCCc2ccccc2)CCN(C(=O)c2cccnc2-c2ccncc2)CC1` [Compound A67, 1-([2,4′ bipyridine]-3-carbonyl)-4-(4-phenylbutyl)piperidine-4-carbonitrile], the IC50 was less than 100 nM.

Regarding `N#CC1(CCc2ccccc2)CCN(C(=O)c2cccnc2-c2ccncc2)CC1` [Compound A68, 1-([2,4′-bipyridine]-3-carbonyl)-4-phenethylpiperidine-4-carbonitrile], the IC50 is 100 to 1000 nM.

`N#CC1(Cc2ccc(F)c(F)c2)CCN(C(=O)c2cccnc2-c2ccncc2)CC1` [Compound A69, 1-([2,4′-bipyridine]-3-carbonyl)-4-(3,4-difluorobenzyl)piperidine-4-carbonitrile]: the concentration for half-maximal inhibition (IC50) was less than 100 nM.
